Measured values as given in ChEMBL document CHEMBL5131467, “Multivalent peptide dendrimers inhibit the fusion of viral-cellular membranes and the cellular NF-κB signaling pathway” (Eur J Med Chem, 2022).
Where a SMILES comes first, the peptide text is derived from it. Bridges are numbered along the chain shown (N, C = ends). Roman numbers before positions name the chains, in order. Side-chain parts run from the residue outwards. The star is where a group is joined. Acetyl(2-naphthyl) = O=C(Cc1ccc2ccccc2c1)*; Fmoc = O=C(OCC1c2ccccc2-c2ccccc21)*

These compounds were tested on Influenza A virus (assay: Antiviral activity against Influenza A virus (A/Puerto Rico/8/1934(H1N1)) NA-H374Y mutant infected in MDCK cells incubated for 1 hr by MTT assay).
Format: functional, organism-based
With `CCOC(=O)c1c(CSc2ccccc2)n(C)c2cc(Br)c(O)c(CN(C)C)c12.Cl` the IC50 was 600 nM.
For `NCCCC[C@H](NC(=O)OCC1c2ccccc2-c2ccccc21)C(=O)N[C@@H](CCCCN)C(=O)N[C@@H](Cc1c[nH]c2ccccc12)C(=O)N[C@@H](CCCCN)C(=O)NCCCC[C@H](NC(=O)[C@H](CCCCN)NC(=O)[C@H](Cc1c[nH]c2ccccc12)NC(=O)[C@H](CCCCN)NC(=O)[C@H](CCCCN)NC(=O)OCC1c2ccccc2-c2ccccc21)C(=O)NCCCC[C@H](NC(=O)[C@H](CCCCNC(=O)[C@H](CCCCN)NC(=O)[C@H](Cc1c[nH]c2ccccc12)NC(=O)[C@H](CCCCN)NC(=O)[C@H](CCCCN)NC(=O)OCC1c2ccccc2-c2ccccc21)NC(=O)[C@H](CCCCN)NC(=O)[C@H](Cc1c[nH]c2ccccc12)NC(=O)[C@H](CCCCN)NC(=O)[C@H](CCCCN)NC(=O)OCC1c2ccccc2-c2ccccc21)C(=O)NCC(=O)O` (I: Fmoc-KKWKK([Lys-Trp-Lys-Lys-Fmoc])KG-OH / II: Fmoc-KKWKK([Lys-Trp-Lys-Lys-Fmoc]); amide I:6-II:C), the IC50 was 540 nM.
With `NCCCC[C@H](NC(=O)Cc1ccc2ccccc2c1)C(=O)N[C@@H](CCCCN)C(=O)N[C@@H](Cc1c[nH]c2ccccc12)C(=O)N[C@@H](CCCCN)C(=O)NCCCC[C@H](NC(=O)[C@H](CCCCN)NC(=O)[C@H](Cc1c[nH]c2ccccc12)NC(=O)[C@H](CCCCN)NC(=O)[C@H](CCCCN)NC(=O)Cc1ccc2ccccc2c1)C(=O)NCCCC[C@H](NC(=O)[C@H](CCCCNC(=O)[C@H](CCCCN)NC(=O)[C@H](Cc1c[nH]c2ccccc12)NC(=O)[C@H](CCCCN)NC(=O)[C@H](CCCCN)NC(=O)Cc1ccc2ccccc2c1)NC(=O)[C@H](CCCCN)NC(=O)[C@H](Cc1c[nH]c2ccccc12)NC(=O)[C@H](CCCCN)NC(=O)[C@H](CCCCN)NC(=O)Cc1ccc2ccccc2c1)C(=O)NCC(=O)O` (I: {Acetyl(2-naphthyl)}-KKWKK([Lys-Trp-Lys-Lys-Acetyl(2-naphthyl)])KG-OH / II: {Acetyl(2-naphthyl)}-KKWKK([Lys-Trp-Lys-Lys-Acetyl(2-naphthyl)]); amide I:6-II:C) the IC50 was 160 nM.
